Source: PMC5218480 (PLoS ONE, 2017)

Tested on: MV-4-11 cells
Experiment: Gene expression microarray analysis (Affymetrix PrimeView) and GSEA
Format: cell-based, human
Set-up: RFU PODN (11730768_x_at) / Fold change /veh PODN (11730768_x_at) / RFU LINC00158 (11744669_a_at) / Fold change /veh LINC00158 (11744669_a_at) / RFU DUSP10 (11751237_a_at) / Fold change /veh DUSP10 (11751237_a_at) / RFU ID3 (11757404_x_at) / Fold change /veh ID3 (11757404_x_at) / RFU PLEKHG5 (11737974_s_at) / Fold change /veh PLEKHG5 (11737974_s_at) / RFU LRRC4B (11730491_at) / Fold change /veh LRRC4B (11730491_at) / RFU GIMAP4 (11747438_a_at) / Fold change /veh GIMAP4 (11747438_a_at) / RFU KRT8 (11758183_x_at) / Fold change /veh KRT8 (11758183_x_at) / RFU CNN1 (11734310_a_at) / Fold change /veh CNN1 (11734310_a_at) / RFU VPS37D (11726825_at) / Fold change /veh VPS37D (11726825_at) / RFU C10orf10 (11716522_x_at) / Fold change /veh C10orf10 (11716522_x_at) / RFU KIR2DL2 /// KIR2DL4 /// KIR2DL5A /// KIR2DL5B /// KIR2DS1 /// KIR2DS2 /// KIR2DS3 /// KIR2DS4 /// KIR3DL3 /// KIR3DL3 /// KIR3DS1 (11738374_at) / Fold change /veh KIR2DL2 /// KIR2DL4 /// KIR2DL5A /// KIR2DL5B /// KIR2DS1 /// KIR2DS2 /// KIR2DS3 /// KIR2DS4 /// KIR3DL3 /// KIR3DL3 /// KIR3DS1 (11738374_at) / RFU C1QL1 (11718748_at) / Fold change /veh C1QL1 (11718748_at) / RFU TMPRSS4 (11747572_a_at) / Fold change /veh TMPRSS4 (11747572_a_at) / RFU HAMP (11756126_x_at) / Fold change /veh HAMP (11756126_x_at) / RFU RNFT2 (11725882_a_at) / Fold change /veh RNFT2 (11725882_a_at) / RFU NR4A2 (11747474_a_at) / Fold change /veh NR4A2 (11747474_a_at) / RFU ABCC12 (11746883_a_at) / Fold change /veh ABCC12 (11746883_a_at) / RFU TMEM136 (11760407_x_at) / Fold change /veh TMEM136 (11760407_x_at) / RFU CLDN22 /// WWC2 (11732394_at) / Fold change /veh CLDN22 /// WWC2 (11732394_at) / RFU HLA-DPB1 (11760878_x_at) / Fold change /veh HLA-DPB1 (11760878_x_at) / RFU SPINT1 (11716480_a_at) / Fold change /veh SPINT1 (11716480_a_at) / RFU GAP43 (11754022_s_at) / Fold change /veh GAP43 (11754022_s_at) / RFU A4GNT (11735810_at) / Fold change /veh A4GNT (11735810_at) / RFU PRB3 (11715151_x_at) / Fold change /veh PRB3 (11715151_x_at) / RFU TUBB4B (11761932_at) / Fold change /veh TUBB4B (11761932_at) / RFU CAPN14 (11732068_a_at) / Fold change /veh CAPN14 (11732068_a_at) / RFU TMCC2 (11721928_a_at) / Fold change /veh TMCC2 (11721928_a_at) / RFU IRGQ (11745062_a_at) / Fold change /veh IRGQ (11745062_a_at) / RFU FAM174B (11720279_a_at) / Fold change /veh FAM174B (11720279_a_at) / RFU TMPRSS4 (11748680_a_at) / Fold change /veh TMPRSS4 (11748680_a_at) / RFU FAM212B (11763350_a_at) / Fold change /veh FAM212B (11763350_a_at) / RFU PLEKHG5 (11743358_a_at) / Fold change /veh PLEKHG5 (11743358_a_at) / RFU ZSCAN30 (11745921_a_at) / Fold change /veh ZSCAN30 (11745921_a_at) / RFU CMKLR1 (11741424_a_at) / Fold change /veh CMKLR1 (11741424_a_at) / RFU LOC101060620 /// MAPK8IP1 (11723275_at) / Fold change /veh LOC101060620 /// MAPK8IP1 (11723275_at) / RFU SPTSSB (11747773_x_at) / Fold change /veh SPTSSB (11747773_x_at) / RFU PRSS12 (11739890_at) / Fold change /veh PRSS12 (11739890_at) / RFU BIN1 (11741810_x_at) / Fold change /veh BIN1 (11741810_x_at) / RFU WNT11 (11732464_a_at) / Fold change /veh WNT11 (11732464_a_at) / RFU C10orf10 (11716521_a_at) / Fold change /veh C10orf10 (11716521_a_at) / RFU C5orf56 (11738089_at) / Fold change /veh C5orf56 (11738089_at) / RFU CYB561 (11721691_x_at) / Fold change /veh CYB561 (11721691_x_at) / RFU ANKRD19P (11752326_a_at) / Fold change /veh ANKRD19P (11752326_a_at) / RFU OR2T12 /// OR2T33 /// OR2T8 (11738714_s_at) / Fold change /veh OR2T12 /// OR2T33 /// OR2T8 (11738714_s_at) / RFU VCAN (11748164_a_at) / Fold change /veh VCAN (11748164_a_at) / RFU JSRP1 (11732532_at) / Fold change /veh JSRP1 (11732532_at) / RFU KRTAP10-11 (11738290_x_at) / Fold change /veh KRTAP10-11 (11738290_x_at) / RFU MYO3A (11730013_a_at) / Fold change /veh MYO3A (11730013_a_at) / RFU EBF3 (11725865_a_at) / Fold change /veh EBF3 (11725865_a_at) / RFU CAMK2N1 (11719241_x_at) / Fold change /veh CAMK2N1 (11719241_x_at) / RFU C5orf56 (11738088_a_at) / Fold change /veh C5orf56 (11738088_a_at) / RFU OLFML3 (11715873_a_at) / Fold change /veh OLFML3 (11715873_a_at) / RFU LOC100653217 /// NTM (11731650_a_at) / Fold change /veh LOC100653217 /// NTM (11731650_a_at) / RFU MAPK11 (11762145_a_at) / Fold change /veh MAPK11 (11762145_a_at) / RFU FIZ1 (11724087_x_at) / Fold change /veh FIZ1 (11724087_x_at) / RFU OASL (11726364_x_at) / Fold change /veh OASL (11726364_x_at) / RFU SOX15 (11748057_x_at) / Fold change /veh SOX15 (11748057_x_at) / RFU CD79A (11719716_a_at) / Fold change /veh CD79A (11719716_a_at) / RFU HIST1H1D (11736915_at) / Fold change /veh HIST1H1D (11736915_at) / RFU CASKIN2 (11723855_a_at) / Fold change /veh CASKIN2 (11723855_a_at) / RFU LOC730098 (11760151_x_at) / Fold change /veh LOC730098 (11760151_x_at) / RFU OR4N2 (11742367_at) / Fold change /veh OR4N2 (11742367_at) / RFU PRRT2 (11749266_a_at) / Fold change /veh PRRT2 (11749266_a_at) / RFU SNX32 (11753110_a_at) / Fold change /veh SNX32 (11753110_a_at) / RFU CDHR5 (11726645_a_at) / Fold change /veh CDHR5 (11726645_a_at) / RFU RCAN1 (11760418_a_at) / Fold change /veh RCAN1 (11760418_a_at) / RFU FAM167A (11723789_a_at) / Fold change /veh FAM167A (11723789_a_at) / RFU FAM26E (11764081_at) / Fold change /veh FAM26E (11764081_at) / RFU ISYNA1 (11749810_s_at) / Fold change /veh ISYNA1 (11749810_s_at) / RFU ACY1 (11761880_at) / Fold change /veh ACY1 (11761880_at) / RFU 11764098_at / Fold change /veh 11764098_at / RFU SAMD14 (11745864_x_at) / Fold change /veh SAMD14 (11745864_x_at) / RFU NPB (11741838_a_at) / Fold change /veh NPB (11741838_a_at) / RFU TMPRSS6 (11731388_a_at) / Fold change /veh TMPRSS6 (11731388_a_at) / RFU KRTAP10-2 (11738614_at) / Fold change /veh KRTAP10-2 (11738614_at) / RFU ARHGAP8 /// PRR5-ARHGAP8 (11727945_x_at) / Fold change /veh ARHGAP8 /// PRR5-ARHGAP8 (11727945_x_at) / RFU KRTAP5-7 /// NADSYN1 (11734609_at) / Fold change /veh KRTAP5-7 /// NADSYN1 (11734609_at) / RFU RASL12 (11751679_a_at) / Fold change /veh RASL12 (11751679_a_at) / RFU CDKN2B (11736163_a_at) / Fold change /veh CDKN2B (11736163_a_at) / RFU PRF1 (11729649_at) / Fold change /veh PRF1 (11729649_at) / RFU, ZNF638 /// ZNF638-IT1 / Fold change vs veh, ZNF638 /// ZNF638-IT1 / RFU, PANK3 / Fold change vs veh, PANK3 / RFU, SH3YL1 / Fold change vs veh, SH3YL1 / RFU, ZEB2 / Fold change vs veh, ZEB2 / RFU, NRIP1 / Fold change vs veh, NRIP1 / RFU, PTTG1IP / Fold change vs veh, PTTG1IP / RFU, CAPN2 / Fold change vs veh, CAPN2 / RFU, MED14 / Fold change vs veh, MED14 / RFU, SNORA58 / Fold change vs veh, SNORA58 / RFU, C1orf63 / Fold change vs veh, C1orf63 / RFU, LRRFIP1 / Fold change vs veh, LRRFIP1 / RFU, NDUFAF7 / Fold change vs veh, NDUFAF7 / RFU, SLC12A2 / Fold change vs veh, SLC12A2 / RFU, IBTK / Fold change vs veh, IBTK / RFU, ESF1 / Fold change vs veh, ESF1 / Fold change vs veh, TMEM50B / RFU, TAOK1 / Fold change vs veh, TAOK1 / RFU, ACBD3 / Fold change vs veh, ACBD3 / RFU, TMA16 / Fold change vs veh, TMA16 / RFU, RWDD3 / Fold change vs veh, RWDD3 / RFU, BCAT1 / Fold change vs veh, BCAT1 / RFU, EDEM3 / Fold change vs veh, EDEM3 / RFU, TMEM33 / Fold change vs veh, TMEM33 / RFU, WDR75 / Fold change vs veh, WDR75 / RFU, AHCTF1 / Fold change vs veh, AHCTF1 / RFU, TFRC / Fold change vs veh, TFRC / RFU, ZDHHC17 / Fold change vs veh, ZDHHC17 / RFU, NOM1 / Fold change vs veh, NOM1 / RFU, ARL8B / Fold change vs veh, ARL8B / RFU, ZBTB11 / Fold change vs veh, ZBTB11 / RFU, TAMM41 / Fold change vs veh, TAMM41 / RFU, KIAA1704 /// LOC100996395 / Fold change vs veh, KIAA1704 /// LOC100996395 / RFU, ING1 / Fold change vs veh, ING1 / RFU, TRMT61B / Fold change vs veh, TRMT61B / RFU, FUBP3 / Fold change vs veh, FUBP3 / RFU, TP53 / Fold change vs veh, TP53 / RFU, TNKS2 / Fold change vs veh, TNKS2 / RFU, ZFP14 / Fold change vs veh, ZFP14 / RFU, ACTR2 / Fold change vs veh, ACTR2 / RFU, PPP3R1 / Fold change vs veh, PPP3R1 / RFU, PIK3R1 / Fold change vs veh, PIK3R1 / RFU, HNRNPA1 / Fold change vs veh, HNRNPA1 / RFU, RNF170 / Fold change vs veh, RNF170 / RFU, ZNF28 / Fold change vs veh, ZNF28 / RFU, RNGTT / Fold change vs veh, RNGTT / RFU, OGT / Fold change vs veh, OGT / RFU, BRD1 / Fold change vs veh, BRD1 / RFU, MARS / Fold change vs veh, MARS / RFU, ZNF655 / Fold change vs veh, ZNF655 / RFU, FAHD1 / Fold change vs veh, FAHD1 / RFU, BDP1 / Fold change vs veh, BDP1 / RFU, LRRCC1 / Fold change vs veh, LRRCC1 / RFU, ARID1A / Fold change vs veh, ARID1A / RFU, ZNF146 / Fold change vs veh, ZNF146 / RFU, ZNF330 / Fold change vs veh, ZNF330 / RFU, GPN3 / Fold change vs veh, GPN3 / RFU, C9orf123 / Fold change vs veh, C9orf123 / RFU, N4BP2L2 / Fold change vs veh, N4BP2L2 / RFU, ARFIP1 / Fold change vs veh, ARFIP1 / RFU, FAM179B / Fold change vs veh, FAM179B / RFU, BCL10 / Fold change vs veh, BCL10 / RFU, UHRF1BP1L / Fold change vs veh, UHRF1BP1L / RFU, BET1 / Fold change vs veh, BET1 / RFU, CNOT2 / Fold change vs veh, CNOT2 / RFU, ZNF268 / Fold change vs veh, ZNF268 / Fold change vs veh, ZNF507 / RFU, DGCR2 / Fold change vs veh, DGCR2 / RFU, WDSUB1 / Fold change vs veh, WDSUB1 / Fold change vs veh, HSP90B1 /// MIR3652 / RFU, ADSS / Fold change vs veh, ADSS / RFU, GK / Fold change vs veh, GK / RFU, ZNF148 / Fold change vs veh, ZNF148 / RFU, TAF9 / Fold change vs veh, TAF9 / RFU, SLC1A5 / Fold change vs veh, SLC1A5 / RFU, SLMO2 / Fold change vs veh, SLMO2 / RFU, ABCC4 / Fold change vs veh, ABCC4 / RFU, LOC101060439 /// RAP1B / Fold change vs veh, LOC101060439 /// RAP1B / RFU, RFX7 / Fold change vs veh, RFX7 / RFU, GTPBP10 / Fold change vs veh, GTPBP10 / RFU, CNEP1R1 / Fold change vs veh, CNEP1R1 / RFU, BIVM-ERCC5 /// ERCC5 / Fold change vs veh, BIVM-ERCC5 /// ERCC5 / RFU, ILF3 / Fold change vs veh, ILF3 / RFU 11762660_at / Fold change /veh 11762660_at / RFU VCAN (11757783_s_at) / Fold change /veh VCAN (11757783_s_at) / RFU DDX43 (11728927_at) / Fold change /veh DDX43 (11728927_at) / RFU KRT8 (11758188_x_at) / Fold change /veh KRT8 (11758188_x_at) / RFU NKD1 (11759106_at) / Fold change /veh NKD1 (11759106_at) / RFU SRD5A1 (11742802_a_at) / Fold change /veh SRD5A1 (11742802_a_at) / RFU TPSAB1 /// TPSB2 (11721975_s_at) / Fold change /veh TPSAB1 /// TPSB2 (11721975_s_at) / RFU GSTM3 (11746129_a_at) / Fold change /veh GSTM3 (11746129_a_at) / RFU IL23R (11737362_x_at) / Fold change /veh IL23R (11737362_x_at) / RFU TMEM51 (11727254_a_at) / Fold change /veh TMEM51 (11727254_a_at) / RFU PIWIL2 (11732686_x_at) / Fold change /veh PIWIL2 (11732686_x_at) / RFU ORM1 (11744905_x_at) / Fold change /veh ORM1 (11744905_x_at) / RFU CCDC152 (11743942_at) / Fold change /veh CCDC152 (11743942_at) / RFU ECM1 (11717891_a_at) / Fold change /veh ECM1 (11717891_a_at) / RFU IL23R (11748794_a_at) / Fold change /veh IL23R (11748794_a_at) / RFU TNFAIP8L3 (11732012_x_at) / Fold change /veh TNFAIP8L3 (11732012_x_at) / RFU MBOAT4 (11741988_at) / Fold change /veh MBOAT4 (11741988_at) / RFU 11764193_at / Fold change /veh 11764193_at / RFU TMEM53 (11763286_at) / Fold change /veh TMEM53 (11763286_at) / RFU MAGEB2 (11727129_at) / Fold change /veh MAGEB2 (11727129_at) / RFU TMEM200A (11744735_a_at) / Fold change /veh TMEM200A (11744735_a_at) / RFU CCDC152 (11751479_a_at) / Fold change /veh CCDC152 (11751479_a_at) / RFU FAM211A (11726209_a_at) / Fold change /veh FAM211A (11726209_a_at) / RFU RGS16 (11746705_a_at) / Fold change /veh RGS16 (11746705_a_at) / RFU VCAN (11755009_s_at) / Fold change /veh VCAN (11755009_s_at) / RFU RHOB (11743442_s_at) / Fold change /veh RHOB (11743442_s_at) / RFU RGS16 (11720943_a_at) / Fold change /veh RGS16 (11720943_a_at) / RFU RGS16 (11720944_at) / Fold change /veh RGS16 (11720944_at) / RFU, VPS4B / Fold change vs veh, VPS4B / RFU, CREB1 / Fold change vs veh, CREB1 / RFU, DNAJC13 / Fold change vs veh, DNAJC13 / RFU, GNAQ / Fold change vs veh, GNAQ / RFU, CDK5R1 / Fold change vs veh, CDK5R1 / RFU, ZRANB3 / Fold change vs veh, ZRANB3 / RFU, CUL4A / Fold change vs veh, CUL4A / RFU, CCNY / Fold change vs veh, CCNY / RFU, UFL1 / Fold change vs veh, UFL1 / RFU, COG3 / Fold change vs veh, COG3 / RFU, DIAPH2 / Fold change vs veh, DIAPH2 / RFU, SKA2 / Fold change vs veh, SKA2 / RFU, AFF3 / Fold change vs veh, AFF3 / RFU, LMF1 / Fold change vs veh, LMF1 / RFU, IPO11 / Fold change vs veh, IPO11 / RFU, DFFB / Fold change vs veh, DFFB / RFU, FOXP1 / Fold change vs veh, FOXP1 / RFU, CARD8 / Fold change vs veh, CARD8 / RFU, STRN3 / Fold change vs veh, STRN3 / RFU, ADK / Fold change vs veh, ADK / RFU, RASSF2 / Fold change vs veh, RASSF2 / RFU, WIPF1 / Fold change vs veh, WIPF1 / RFU, LARP1B / Fold change vs veh, LARP1B / RFU, RASA1 / Fold change vs veh, RASA1 / RFU, RB1 / Fold change vs veh, RB1 / RFU, PPFIA1 / Fold change vs veh, PPFIA1 / RFU, MAT2A / Fold change vs veh, MAT2A / RFU, CCT5 / Fold change vs veh, CCT5 / RFU, WDR92 / Fold change vs veh, WDR92 / RFU, CUX1 / Fold change vs veh, CUX1 / RFU, TTC7A / Fold change vs veh, TTC7A / RFU, TMEM135 / Fold change vs veh, TMEM135 / RFU, DEPTOR / Fold change vs veh, DEPTOR / RFU, CPM / Fold change vs veh, CPM / RFU, DNAJB6 / Fold change vs veh, DNAJB6 / RFU, CACNA2D3 / Fold change vs veh, CACNA2D3 / RFU, DTX4 / Fold change vs veh, DTX4 / RFU, TFCP2 / Fold change vs veh, TFCP2 / RFU, GMCL1 /// GMCL1P1 / Fold change vs veh, GMCL1 /// GMCL1P1 / RFU, AEBP2 / Fold change vs veh, AEBP2 / RFU, SNHG1 /// SNORD22 /// SNORD25 /// SNORD26 /// SNORD27 /// SNORD28 /// SNORD29 /// SNORD31 / Fold change vs veh, SNHG1 /// SNORD22 /// SNORD25 /// SNORD26 /// SNORD27 /// SNORD28 /// SNORD29 /// SNORD31 / Fold change (Aza/veh), C12orf56 (ProbeSet 11735607_a_at) / Fold change (ACY-1035/veh), C12orf56 (ProbeSet 11735607_a_at) / Fold change (Aza/veh), FGFR1OP (ProbeSet 11751329_s_at) / Fold change (ACY-1035/veh), FGFR1OP (ProbeSet 11751329_s_at) / Fold change (Aza/veh), VPS36 (ProbeSet 11739960_a_at) / Fold change (ACY-1035/veh), VPS36 (ProbeSet 11739960_a_at) / RFU SYPL1 (11715823_x_at) / Fold change /veh SYPL1 (11715823_x_at) / RFU IGFBP7 (11715501_s_at) / Fold change /veh IGFBP7 (11715501_s_at) / RFU REEP3 (11722064_at) / Fold change /veh REEP3 (11722064_at) / RFU IGLL1 (11728026_x_at) / Fold change /veh IGLL1 (11728026_x_at): dose or concentration left out as unconfirmed
Details: ProbeSet 11757268_x_at; LIST B

`Nc1ncn([C@@H]2O[C@H](CO)[C@@H](O)[C@H]2O)c(=O)n1` [azacitidine] was tested, and the “RFU, HNRNPA1” value was 4469.53 RFU.
